Several values for one entry are separate records, joined by “and”; a condition that tells them apart may be missing. Equal entries are not always repeated.

Test [1] deals with Protein kinase C alpha type (Homo sapiens, UniProt P17252).
For test [2], the target named is Protein kinase C delta type (Homo sapiens, UniProt Q05655).
Chain of Protein kinase C delta type (Q05655 whole entry): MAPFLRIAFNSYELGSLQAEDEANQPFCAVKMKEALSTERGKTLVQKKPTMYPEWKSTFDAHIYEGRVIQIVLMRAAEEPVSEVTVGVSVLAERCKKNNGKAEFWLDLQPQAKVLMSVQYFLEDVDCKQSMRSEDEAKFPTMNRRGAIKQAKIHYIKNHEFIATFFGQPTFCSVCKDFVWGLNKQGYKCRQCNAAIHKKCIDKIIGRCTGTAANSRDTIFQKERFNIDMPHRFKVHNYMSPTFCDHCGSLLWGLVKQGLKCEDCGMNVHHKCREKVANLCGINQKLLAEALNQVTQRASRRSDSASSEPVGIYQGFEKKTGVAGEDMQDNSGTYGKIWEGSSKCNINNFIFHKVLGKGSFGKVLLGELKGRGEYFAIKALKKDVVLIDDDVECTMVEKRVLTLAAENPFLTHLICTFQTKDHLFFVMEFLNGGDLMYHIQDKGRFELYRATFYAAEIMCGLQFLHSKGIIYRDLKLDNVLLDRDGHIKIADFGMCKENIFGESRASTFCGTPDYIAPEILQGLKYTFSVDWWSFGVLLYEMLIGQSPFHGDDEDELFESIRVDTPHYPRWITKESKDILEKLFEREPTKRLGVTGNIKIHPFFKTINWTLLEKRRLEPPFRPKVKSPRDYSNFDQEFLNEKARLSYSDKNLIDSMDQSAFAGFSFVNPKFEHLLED

`CC(C)C1C(=O)NC(CO)Cc2c[nH]c3cccc(c23)N1C` (stereo not drawn) [(-)-Indolactam V (low PS)]: the inhibitory constant (Ki) was 12.6 nM in test [1]; 8.16 nM and 43.1 nM in test [2].
As for `CCC(C)(C/C=C1/CC(CO)(COC(=O)CC(C)(CC)C(C)C)OC1=O)C(C)C` (stereo not drawn) [B8-DL-B8 (low PS)], the Ki in test [1] was 2.9 nM and 3.57 nM; in test [2] it was 11.6 nM and 10 nM.
Turning to `CCCCCCCCc1ccc2c3c(c[nH]c13)CC(CO)NC(=O)C(C(C)C)N2C` (configuration not stated) [CAS_159320], the inhibitory constant (Ki) in test [1] was 0.53 nM; in test [2], 0.77 nM.
The corresponding values for `C=C(C)C12OC3(c4ccccc4)OC1C1C4OC4(CO)C(O)C4(O)C(=O)C(C)=CC4C1(O3)C(C)C2OC(=O)C=CC=Cc1ccccc1` (configuration not stated) [NSC_4179] are 0.27 nM and 0.55 nM.
With `CC1=CC2C(O)(CC(CO)=CC3C4C(C)(C)C4(OC(=O)Cc4ccccc4)CC(C)C32O)C1=O` (configuration not stated) [NSC_105100], the inhibition constant (Ki) in test [1] turned out to be 0.14 nM; in test [2], 0.56 nM.
Take `C=C(C)C12OC3(c4ccccc4)OC1C1C4OC4(CO)C(O)C4(O)C(=O)C(C)=CC4C1(O3)C(C)C2OC(=O)C=Cc1ccccc1` (configuration not stated) [NSC_6437389]: the inhibitory constant (Ki) is 0.29 nM and 0.22 nM in test [1]; 1.31 nM and 10.7 nM in test [2].

(Values after BindingDB's records for doi:10.1124/mol.64.6.1342 (University of Pittsburgh, 2003).)
